Structures are written as SMILES.

Data set [1] has as its system human embryonic stem (hES) cell line H1. The conditions noted are these: MCDB-131 with 3.7 g/l versus 1 g/l bicarbonate.
Description: Cells of the human embryonic stem (hES) cell line H1 at passage 46 (p46) were seeded as cell colonies to [sequence] (1:30 dilution) coated dishes at a 1 to 3 passage ratio by lifting cells with Dispase (Catalog #17105-041, Invitrogen, CA) and plating the cells in MEF-CM with 20 ng/ml of FGF2. The media was changed daily with fresh MEF-CM with 20 ng/ml of FGF2, until initiation of differentiation into definitive endoderm (DE) as follows: • a. MCDB-131 (Catalog #10372-019, Invitrogen, CA) medium supplemented with 2% fatty acid-free BSA (Catalog #68700, Proliant, IA), 1× GlutaMax™ (Catalog #35050-079, Invitrogen, Ca) and 100 ng/ml activin A (R&D Systems, MN) plus 20 ng/ml WNT-3a (Catalog #1324-WN-002, R&D Systems, MN) for one day, followed by treatment with MCDB-131 supplemented with 2% BSA, GlutaMax™, and 100 ng/ml activin A each day for an additional three days; or • b.
At day 4, samples were collected for FACS and gene expression analysis using real-time PCR, and counted by ViaCount® (Guava®, Millipore, Billerica, Mass.).
In data set [2] the test system is human embryonic stem cell line H1. Kind of data set: Differentiation of H1 cells to definitive endoderm in MCDB-131 with added glucose; FACS, real-time PCR, ViaCount at day 4 (Example 2). Format: cell-based. The method, then: Cells of the human embryonic stem cell line H1 at passage 41 (p41) were lifted by TrypLE (Catalog #12604-013, Invitrogen, CA) and seeded as single cells at a density of 100,000 cells/cm^2 on MATRIGEL® coated dishes (1:30 dilution) in MEF-CM (mouse embryonic fibroblast conditioned media) supplemented with 20 ng/ml of FGF2 (Catalog #100-18B, PeproTech, NJ) and 10 μM of Y-27632 (a Rho Kinase Inhibitor, Catalog #Y0503, Sigma, MO). […] The cultures were differentiated into cells expressing markers characteristic of the definitive endoderm lineage 72 hrs post as follows: • a. […] MCDB-131 medium supplemented with 2% BSA, sodium bicarbonate, GlutaMax™, 100 ng/ml activin A, and either 0, 5, 10, 15, 20, or 25 mM of glucose for an additional three days.
However, these increases in cell number and CXCR4 were offset by a reduction in total cell viability (FIG. 2B).
These clustered cells were subsequently less evenly dispersed on the culture surface than populations of cells cultured in the basal level of glucose.

For data set [3] the test system is unchanged. Kind of data set: Differentiation of H1 cells to definitive endoderm in DMEM with low or high glucose; flow cytometry and qRT-PCR (Example 2). Format: cell-based. The conditions noted are these: for cells positive for CXCR4: flow cytometry. The method, then:
Similar glucose related effects on differentiation were also observed in cultures differentiated with DMEM containing either 5.5 mM (low) or 25 mM (high) glucose concentration (Cat #s 10567-014 and 21063-029, Invitrogen, CA). As described above, for controls, cells were seeded as single cells, cultured 3 days in MEF conditioned media and differentiated in MCDB-131 with 5.5 mM or 25 mM glucose supplemented media, or in DMEM high or low glucose media supplemented with 2% fatty acid free BSA, 100 ng/ml activin A, and 20 ng/ml WNT-3a on the first day, and 2% fatty acid free BSA and 100 ng/ml activin A for the next three days with daily media change. Similar to results with MCDB-131 media, where elevated glucose inhibits definitive endoderm formation as compared to low glucose media treated cells, we observed that a high glucose concentration in DMEM reduced hES cell differentiation. By flow cytometry, following differentiation to definitive endoderm, 88.6% of cells were positive for CXCR4 in media containing 5.5 mM glucose versus 80% CXCR4 positive cells in media containing 25 mM glucose. Additionally, markers of differentiation to definitive endoderm as measured by qRT-PCR (SOX17) were decreased while markers of undifferentiated cells (OCT4) or alternative differentiation fates (CDX2) were increased (FIG. 5) in cells fed media containing high glucose versus those fed low glucose media. This effect was due at least in part to the pH of the media as we noted that over the four day differentiation, media pH dropped after 48 hours of differentiation day. Furthermore, the higher the starting and ending pH of culture media (8.1>pH>7.6) (FIG. 6) during definitive endoderm formation, the more complete the conversion to definitive endoderm.
Background: A flow cytometer gives signals particle by particle.

Setting [4] is: increased glucose concentration, clustered cells, real-time PCR.
The mark [5] stands for this setting: high glucose versus low glucose media.

Turning to `O=C([O-])O.[Na+]` [Sodium Bicarbonate], in data set [1], the CD9 expression levels entry is given as “lower” and the CXCR4 expression entry was “significantly higher”.

For the compound `O=C[C@H](O)[C@@H](O)[C@H](O)[C@H](O)CO` [glucose], the CXCR4 expression result in data set [2] (additional 5 mM glucose (10.5 mM final), MCDB-131, day 4) is reported as “modest increase”. The cell number entry in data set [2] (additional 10 mM glucose (15.5 mM final), MCDB-131, day 4) is recorded as “modest increase”. The SOX17 positive cells entry in data set [2] (basal level of glucose (5.5 mM), MCDB-131) is “almost every cell in the culture was SOX17 positive”. Moreover, in data set [2] (setting [4]), the CD9 expression entry was “slight increase”, the “MNX1 (HLXB9) gene expression” value is “decrease”, the OCT4 expression entry is on record as “slight increase” and the SOX7 expression result is reported as “slight increase”. In addition, the total cell viability entry in data set [2] (supplemented glucose (10.5 to 15.5 mM final), MCDB-131, day 4) is on record as “reduction”. In data set [3] (setting [5]), the “CDX2 expression (qRT-PCR)” value is given as “increased”, the “OCT4 expression (qRT-PCR)” value is recorded as “increased” and the “SOX17 expression (qRT-PCR)” value is “decreased”. Besides, the “cells positive for CXCR4” value in data set [3] (media containing 5.5 mM glucose) was 88.6%. For the same compound, the “cells positive for CXCR4” value in data set [3] (media containing 25 mM glucose) worked out at 80%.

Source of the values: patent US9951314B2, “Differentiation of human embryonic stem cells” (Janssen Biotech, Inc., priority 2010, dated 2018).
